Test results from patent publication US8802597B2, “Herbicidal pyrimidines” (E I du Pont de Nemours and Company, priority 2003, dated 2014).

What was measured:
[1] = test system: winter barley (Hordeum vulgare); assay: Test C postemergence; assay type: in vivo; conditions: for Plant response rating, Barley: scale 0 to 100
Procedure, shortened: (§1)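 Percent control is a visual rating (0 none, 100 complete) taken against untreated plants after 12 to 14 days of greenhouse growth. Applications were made preemergence to seeded pots and postemergence to plants at the 1- to 4-leaf stage, in a non-phytotoxic surfactant-containing solvent.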

[2] = test system: downy brome (Bromus tectorum); assay: Test C postemergence; assay type: in vivo; conditions: for Plant response rating, Bromegrass, Downy: scale 0 to 100
Procedure, shortened: as §1

[3] = test system: blackgrass (Alopecurus myosuroides); assay: Test C postemergence; assay type: in vivo; conditions: for Plant response rating, Blackgrass: scale 0 to 100
Procedure, shortened: as §1

[4] = test system: wheat (Triticum aestivum); assay: Test C postemergence; assay type: in vivo; conditions: for Plant response rating, Wheat: scale 0 to 100
Procedure, shortened: as §1

[5] = test system: green foxtail (Setaria viridis); assay: Test C postemergence; assay type: in vivo; conditions: for Plant response rating, Foxtail, Green: scale 0 to 100
Procedure, shortened: as §1

wild oat (Avena fatua) = assay: Test C postemergence; assay type: in vivo; conditions: for Plant response rating, Oat, Wild: scale 0 to 100
Procedure, shortened: as §1

[6] = test system: windgrass (Apera spica-venti); assay: Test C postemergence; assay type: in vivo; conditions: for Plant response rating, Windgrass: scale 0 to 100
Procedure, shortened: as §1

[7] = test system: canarygrass (Phalaris minor); assay: Test C postemergence; assay type: in vivo; conditions: for Plant response rating, Canarygrass: scale 0 to 100
Procedure, shortened: as §1

[8] = test system: Italian ryegrass (Lolium multiflorum); assay: Test C postemergence; assay type: in vivo; conditions: for Plant response rating, Ryegrass, Italian: scale 0 to 100
Procedure, shortened: as §1

[9] = test system: duck salad (Heteranthera limosa); assay: Test C flooded paddy test; assay type: in vivo; conditions: Flood, scale 0 to 100
Procedure, shortened: (§2)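 Response scores reflect visual evaluation after 12 to 14 days in the greenhouse, with 0 for no effect and 100 for complete control relative to untreated plants. Treatment was made at the 2-leaf stage in a flooded paddy setting, and a dash denotes no test result.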

[10] = test system: barnyardgrass (Echinochloa crus-galli); assay: Test C flooded paddy test; assay type: in vivo; conditions: Flood
Procedure, shortened: as §2

rice (Oryza sativa) = assay: Test C flooded paddy test; assay type: in vivo; conditions: Flood, scale 0 to 100
Procedure, shortened: as §2

[11] = test system: umbrella sedge (Cyperus difformis); assay: Test C flooded paddy test; assay type: in vivo; conditions: Flood, scale 0 to 100
Procedure, shortened: as §2

melting point: 87 to 89 °C
SMILES: CCOC(=O)c1nc(C2CC2)nc(N)c1Cl [Compound 4, ethyl 6-amino-5-chloro-2-cyclopropyl-4-pyrimidinecarboxylate]
Plant response rating, Barley ([1]; 125 g ai/ha): 65
Plant response rating, Barley ([1]; 250 g ai/ha): 65
Plant response rating, Barley ([1]; 500 g ai/ha): 65
plant injury at 62 g/ha ([1]; Hordeum vulgare, post-emergence, 62 g ai/ha, scale 0 to 100 (0 no effect, 100 complete control), read-out: Barley plant response rating): 30%
Plant response rating, Bromegrass, Downy ([2]; 125 g ai/ha): 60
Plant response rating, Bromegrass, Downy ([2]; 250 g ai/ha): 65
Plant response rating, Bromegrass, Downy ([2]; 500 g ai/ha): 70
pest or weed control at 62 g/ha ([2]; Bromus tectorum, post-emergence, 62 g ai/ha, scale 0 to 100 (0 no effect, 100 complete control), read-out: Bromegrass, Downy plant response rating): 45%
Plant response rating, Blackgrass ([3]; 125 g ai/ha): 65
Plant response rating, Blackgrass ([3]; 250 g ai/ha): 70
Plant response rating, Blackgrass ([3]; 500 g ai/ha): 70
pest or weed control at 62 g/ha ([3]; Alopecurus myosuroides, post-emergence, 62 g ai/ha, scale 0 to 100 (0 no effect, 100 complete control), read-out: Blackgrass plant response rating): 65%
Plant response rating, Wheat ([4]; 250 g ai/ha): 65
Plant response rating, Wheat ([4]; 500 g ai/ha): 65
plant injury at 62 g/ha ([4]; Triticum aestivum, post-emergence, 62 g ai/ha, scale 0 to 100 (0 no effect, 100 complete control), read-out: Wheat plant response rating): 50%
plant injury at 125 g/ha ([4]; Triticum aestivum, post-emergence, 125 g ai/ha, scale 0 to 100 (0 no effect, 100 complete control), read-out: Wheat plant response rating): 60%
Plant response rating, Foxtail, Green ([5]; 250 g ai/ha): 70
Plant response rating, Foxtail, Green ([5]; 500 g ai/ha): 75
pest or weed control at 62 g/ha ([5]; Setaria viridis, post-emergence, 62 g ai/ha, scale 0 to 100 (0 no effect, 100 complete control), read-out: Foxtail, Green plant response rating): 65%
pest or weed control at 125 g/ha ([5]; Setaria viridis, post-emergence, 125 g ai/ha, scale 0 to 100 (0 no effect, 100 complete control), read-out: Foxtail, Green plant response rating): 70%
Plant response rating, Oat, Wild (wild oat (Avena fatua); 250 g ai/ha): 70
Plant response rating, Oat, Wild (wild oat (Avena fatua); 500 g ai/ha): 70
pest or weed control at 62 g/ha (wild oat (Avena fatua); Avena fatua, post-emergence, 62 g ai/ha, scale 0 to 100 (0 no effect, 100 complete control), read-out: Oat, Wild plant response rating): 60%
pest or weed control at 125 g/ha (wild oat (Avena fatua); Avena fatua, post-emergence, 125 g ai/ha, scale 0 to 100 (0 no effect, 100 complete control), read-out: Oat, Wild plant response rating): 65%
Plant response rating, Windgrass ([6]; 250 g ai/ha): 70
Plant response rating, Windgrass ([6]; 500 g ai/ha): 75
pest or weed control at 62 g/ha ([6]; Apera spica-venti, post-emergence, 62 g ai/ha, scale 0 to 100 (0 no effect, 100 complete control), read-out: Windgrass plant response rating): 60%
pest or weed control at 125 g/ha ([6]; Apera spica-venti, post-emergence, 125 g ai/ha, scale 0 to 100 (0 no effect, 100 complete control), read-out: Windgrass plant response rating): 65%
Plant response rating, Canarygrass ([7]; 125 g ai/ha): 45
Plant response rating, Canarygrass ([7]; 250 g ai/ha): 60
Plant response rating, Canarygrass ([7]; 500 g ai/ha): 60
pest or weed control at 62 g/ha ([7]; Phalaris minor, post-emergence, 62 g ai/ha, scale 0 to 100 (0 no effect, 100 complete control), read-out: Canarygrass plant response rating): 35%
Plant response rating, Ryegrass, Italian ([8]; 250 g ai/ha): 65
Plant response rating, Ryegrass, Italian ([8]; 500 g ai/ha): 65
pest or weed control at 62 g/ha ([8]; Lolium multiflorum, post-emergence, 62 g ai/ha, scale 0 to 100 (0 no effect, 100 complete control), read-out: Ryegrass, Italian plant response rating): 45%
pest or weed control at 125 g/ha ([8]; Lolium multiflorum, post-emergence, 125 g ai/ha, scale 0 to 100 (0 no effect, 100 complete control), read-out: Ryegrass, Italian plant response rating): 60%
Plant response rating, Ducksalad ([9]; 62 g ai/ha): 70
Plant response rating, Ducksalad ([9]; 125 g ai/ha): 80
Plant response rating, Ducksalad ([9]; 250 g ai/ha): 90
Plant response rating, Ducksalad ([9]; 500 g ai/ha): 100
Plant response rating, Barnyardgrass ([10]; 62 g ai/ha, scale 0 to 100): 0
Plant response rating, Barnyardgrass ([10]; 125 g ai/ha, scale 0 to 100): 60
Plant response rating, Barnyardgrass ([10]; 250 g ai/ha, scale 0 to 100): 65
Plant response rating, Barnyardgrass ([10]; 500 g ai/ha, scale 0 to 100 (0 no effect, 100 complete control)): 85
Plant response rating, Rice (rice (Oryza sativa); 62 g ai/ha): 0
Plant response rating, Rice (rice (Oryza sativa); 125 g ai/ha): 40
Plant response rating, Rice (rice (Oryza sativa); 250 g ai/ha): 75
Plant response rating, Rice (rice (Oryza sativa); 500 g ai/ha): 80
Plant response rating, Sedge, Umbrella ([11]; 62 g ai/ha): 0
Plant response rating, Sedge, Umbrella ([11]; 125 g ai/ha): 30
Plant response rating, Sedge, Umbrella ([11]; 250 g ai/ha): 65
Plant response rating, Sedge, Umbrella ([11]; 500 g ai/ha): 75
